These results are taken from US12312337B2, “Compounds and methods for treating cancer” (ANTIDOTE IP HOLDINGS, LLC, priority 2019, dated 2025).

The target in one data set is T1, human AhR (Homo sapiens, UniProt P35869).
T1 construct: INDIGO's Aryl Hydrocarbon Receptor (AhR) Reporter Cells include the luciferase reporter gene functionally linked to an AhR-responsive promoter
T1 sequence (P35869 11-848): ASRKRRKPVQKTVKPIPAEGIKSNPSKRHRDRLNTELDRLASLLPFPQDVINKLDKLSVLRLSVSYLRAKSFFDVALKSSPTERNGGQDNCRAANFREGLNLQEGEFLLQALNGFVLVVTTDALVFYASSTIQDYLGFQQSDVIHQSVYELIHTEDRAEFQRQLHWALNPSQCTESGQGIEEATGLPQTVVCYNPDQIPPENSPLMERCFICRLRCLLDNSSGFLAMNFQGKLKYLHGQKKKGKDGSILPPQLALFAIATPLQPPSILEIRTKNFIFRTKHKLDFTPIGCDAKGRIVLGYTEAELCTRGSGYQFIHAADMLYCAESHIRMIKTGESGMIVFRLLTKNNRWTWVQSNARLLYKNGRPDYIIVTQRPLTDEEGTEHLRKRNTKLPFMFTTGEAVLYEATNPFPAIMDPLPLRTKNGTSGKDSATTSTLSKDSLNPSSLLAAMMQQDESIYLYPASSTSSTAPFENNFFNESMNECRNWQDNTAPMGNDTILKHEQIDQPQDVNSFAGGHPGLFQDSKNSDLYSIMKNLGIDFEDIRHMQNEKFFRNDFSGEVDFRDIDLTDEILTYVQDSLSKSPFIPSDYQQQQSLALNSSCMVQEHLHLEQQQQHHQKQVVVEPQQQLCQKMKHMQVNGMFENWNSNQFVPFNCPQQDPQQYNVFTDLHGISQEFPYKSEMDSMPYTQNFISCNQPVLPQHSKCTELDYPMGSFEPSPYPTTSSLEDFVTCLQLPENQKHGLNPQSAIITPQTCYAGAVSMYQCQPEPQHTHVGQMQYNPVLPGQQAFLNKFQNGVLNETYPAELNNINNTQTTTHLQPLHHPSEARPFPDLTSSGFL
Nature of the data set: INDIGO AhR Reporter Assay (luciferase reporter cells, antagonist mode). In kind it is cell-based. Particulars: antagonist mode with 50 nM of VAF347 (AhR agonist); 22-24 hours incubation; luciferase RLU. From the text:
INDIGO's Aryl Hydrocarbon Receptor (AhR) Reporter Cells include the luciferase reporter gene functionally linked to an AhR-responsive promoter. Thus, quantifying changes in luciferase expression in the treated reporter cells provides a sensitive surrogate measure of the changes in AhR activity. The principle application of this reporter assay is in the screening of test samples to quantify any functional activity, either agonist or antagonist, that they may exert against human AhR. Reporter Cells incorporate the cDNA encoding beetle luciferase, a 62 kD protein originating from the North American firefly (Photinus pyralis). Luciferase catalyzes the mono-oxidation of D-luciferin in a Mg^2+-dependent reaction that consumes 02 and ATP as co-substrates, and yields as products oxyluciferin, AMP, PPi, CO2, and photon emission. Luminescence intensity of the reaction is quantified using a luminometer, and is reported in terms of Relative Light Units (RLU's). In brief, 200 μl of Reporter Cells was dispensed into wells of the assay plate and pre-incubated for 4-6 hours. Following the pre-incubation period, culture media were discarded and 200 µl/well of the prepared 1×-concentration treatment media were added. Following 22-24 hours of incubation, treatment media were discarded and Luciferase Detection Reagent was added. The intensity of light emission (in units of “Relative Light Units” (RLU)) from each assay well was quantified using a plate-reading luminometer. The assay was run as a competitive binding assay in the antagonist mode with 50 nM of VAF347, a known AhR agonist.
In Table 4, IC50 values are reported as A, B, C, or D. A represents an IC50 value of less than 100 nM. B represents an IC50 value of equal or greater than 100 nM and less than 500 nM. C represents an IC50 value of equal or greater than 500 nM and less than 1 μM. D represents an IC50 value of equal or greater than 1 μM.

A further data set relates to AhR. Conditions: binding to the AhR; acts as an agonist; read-out: apparent Kd; cited from earlier work.

`CCN(CC)S(=O)(=O)c1cc(NC(=O)c2cc3ncccc3cc2Cl)ccc1Cl` [Compound 34, 6-Chloro-N-(4-chloro-3-(N,N-diethylsulfamoyl)phenyl)quinoline-7-carboxamide] registered an IC50 on human AhR of 0.1 to 0.5 µM.
Same read-out and setting: the figure for `Cc1ccccc1-c1cnc2cc(C(=O)Nc3ccc(C(F)(F)F)nc3)ccc2c1` [Compound 81, 3-(o-tolyl)-N-(6-(trifluoromethyl)pyridin-3-yl)quinoline-7-carboxamide] is 0.1 to 0.5 µM.
As to `Nc1ccccc1C(=O)CC(N)C(=O)O` (centres unmarked) [Kynurenine], the Kd in the data set with AhR is around 4 µM.
In the case of `Cn1nc(C(C)(C)C)cc1NC(=O)c1ccc2cc(-c3ccc(F)cc3)cnc2c1` [Compound 74, 3-(4-Fluorophenyl)-N-[1-methyl-3-(tert-butyl)-1H-pyrazol-5-yl]quinoline-7-carboxamide], on human AhR, the 50% inhibitory concentration (IC50) was 0.1 to 0.5 µM.
The same measure, in the same setting: the figure for `Cn1nc(C(F)(F)F)cc1NC(=O)c1ccc2cc(-c3ccncc3)cnc2c1` [Compound 78, N-[1-methyl-3-(trifluoromethyl)-1-pyrazol-yl]-3-(pyridin-4-yl)quinoline-7-carboxamide] is 0.1 to 0.5 µM; for `Cc1ccc(Cl)cc1-c1cc(NC(=O)c2cc3ncccc3cc2Cl)n(C)n1` [Compound 51, 6-Chloro-N-[3-(5-chloro-2-methylphenyl)-1-methyl-1H-pyrazol-5-yl]quinoline-7-carboxamide] it is below 0.1 µM; for `Cn1nc(C(F)(F)F)cc1NC(=O)c1ccc2cc(-c3ccccc3F)cnc2c1` [Compound 54, 3-(2-Fluorophenyl)-N-[1-methyl-3-(trifluoromethyl)-1H-pyrazol-5-yl]quinoline-7-carboxamide] it is below 0.1 µM.
Compound `Cc1ccc(C(F)(F)F)cc1-c1cc(NC(=O)c2cc3ncccc3cc2Cl)n(C)n1` [Compound 59] yielded an IC50 at human AhR of 0.1 to 0.5 µM.
Consider `Cc1cc(Cl)ccc1-c1cc(NC(=O)c2cc3ncccc3cc2Cl)n(C)n1` [Compound 58, 6-Chloro-N-(3-(4-chloro-2-methylphenyl)-1-methyl-1H-pyrazol-5-yl)quinoline-7-carboxamide], for which the IC50 at human AhR lay in the range of 0.1 to 0.5 µM.
Turning to `Cn1nc(C(F)(F)F)cc1NC(=O)c1ccc2cc(-c3ncc(F)cc3F)cnc2c1` [Compound 124, 3-(3,5-difluoropyridin-2-yl)-N-[l-methyl-3-(trifluoromethyl)-1H-pyrazol-5-yl]quinoline-7-carboxamide], on human AhR, the 50% inhibitory concentration (IC50) was below 0.1 µM.
Same read-out and setting: under `CCN(CC)S(=O)(=O)c1cc(NC(=O)c2cc3cc(-c4ccccn4)cnc3s2)ccc1Cl` [Compound 144, N-[4-chloro-3-(N,N-diethylsulfamoyl)phenyl]-5-(pyridin-2-yl)-thieno[2,3-b]pyridine-2-carboxamide] stands 0.5 to 1 µM.
Same read-out and setting: under `Cn1nc(C(F)(F)F)cc1NC(=O)c1ccc2cc(-c3ccc(F)cc3F)cnc2c1` [Compound 75, 3-(2,4-Difluorophenyl)-N-[1-methyl-3-(trifluoromethyl)-1H-pyrazol-5-yl]quinoline-7-carboxamide] stands below 0.1 µM; under `CCN(CC)S(=O)(=O)c1cc(NC(=O)c2cc3cc(-c4ccncc4F)cnc3s2)ccc1Cl` [Compound 145, N-[4-chloro-3-(N,N-diethylsulfamoyl)phenyl]-5-(3-fluoropyridin-4-yl)-thieno[2,3-b]pyridine-2-carboxamide], 0.1 to 0.5 µM; under `Cn1nc(C(F)(F)F)cc1NC(=O)c1ccc2cc(-c3ccncc3F)cnc2c1` [Compound 98, 3-(3-fluoropyridin-4-yl)-N-[1-methyl-3-(trifluoromethyl)-1H-pyrazol-5-yl]quinoline-7-carboxamide], 0.1 to 0.5 µM.

For orientation: IC50 means the concentration that gives 50% inhibition. Low readings indicate greater potency in that assay, high ones weaker potency in that assay.
